{"source": "ChEMBL document CHEMBL3259722", "about": "“MT1 and MT2 melatonin receptors: ligands, models, oligomers, and therapeutic potential” (J Med Chem, 2014)", "key": {"[1]": {"biological_target": "T1, Melatonin receptor type 1A (Homo sapiens, UniProt P48039)", "T1 sequence (P48039 whole entry)": "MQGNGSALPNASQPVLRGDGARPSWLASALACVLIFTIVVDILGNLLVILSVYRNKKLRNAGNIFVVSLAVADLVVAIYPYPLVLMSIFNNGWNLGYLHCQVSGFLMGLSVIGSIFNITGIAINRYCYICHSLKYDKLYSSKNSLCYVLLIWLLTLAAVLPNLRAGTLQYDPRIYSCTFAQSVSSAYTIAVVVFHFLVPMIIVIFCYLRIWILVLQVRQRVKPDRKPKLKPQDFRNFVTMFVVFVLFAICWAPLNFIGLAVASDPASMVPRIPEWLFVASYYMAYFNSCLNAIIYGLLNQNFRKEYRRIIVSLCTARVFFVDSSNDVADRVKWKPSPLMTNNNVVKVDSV", "assay": "biochemical"}, "Homo sapiens [2]": {"organism": "Homo sapiens", "assay": "Selectivity ratio of Ki for human recombinant MT1 receptor to Ki for human recombinant MT2 receptor"}, "[3]": {"biological_target": "T2, Melatonin receptor type 1B (Homo sapiens, UniProt P49286)", "T2 sequence (P49286 whole entry)": "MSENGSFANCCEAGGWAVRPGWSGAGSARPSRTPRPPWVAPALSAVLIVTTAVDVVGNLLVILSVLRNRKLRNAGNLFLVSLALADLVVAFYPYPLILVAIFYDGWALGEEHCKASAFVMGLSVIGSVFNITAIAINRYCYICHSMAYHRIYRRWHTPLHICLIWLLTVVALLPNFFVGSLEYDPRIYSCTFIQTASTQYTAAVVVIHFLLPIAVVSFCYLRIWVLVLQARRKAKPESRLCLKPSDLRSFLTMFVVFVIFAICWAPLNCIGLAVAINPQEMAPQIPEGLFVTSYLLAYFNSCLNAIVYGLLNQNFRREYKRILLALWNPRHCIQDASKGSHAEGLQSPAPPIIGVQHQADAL", "assay": "Displacement of [125I]2-iodomelatonin from human recombinant MT2 receptor expressed in African green monkey COS7 cells", "type": "cell-based, COS-7"}, "Homo sapiens [4]": {"organism": "Homo sapiens", "assay": "Selectivity ratio of Ki for MT1 receptor (unknown origin) to Ki for MT2 receptor (unknown origin)"}, "[5]": {"biological_target": "T2, Melatonin receptor type 1B", "assay": "Displacement of [125I]2-iodomelatonin from human MT2 receptor expressed in CHO cells", "type": "cell-based"}, "[6]": {"biological_target": "T1, Melatonin receptor type 1A", "assay": "Displacement of [125I]2-iodomelatonin from human MT1 receptor expressed in CHO cells", "type": "cell-based"}, "Homo sapiens [7]": {"organism": "Homo sapiens", "assay": "Selectivity ratio of Ki for human MT2 receptor to Ki for human MT1 receptor"}, "[8]": {"biological_target": "T2, Melatonin receptor type 1B", "assay": "Displacement of [125I]2-iodomelatonin from MT2 receptor (unknown origin) expressed in HEK293 cells", "type": "cell-based"}, "Homo sapiens [9]": {"organism": "Homo sapiens", "assay": "Selectivity ratio of Ki for MT2 receptor (unknown origin) to Ki for MT1 receptor (unknown origin)"}, "[10]": {"biological_target": "T2, Melatonin receptor type 1B", "assay": "Agonist activity at MT2 receptor (unknown origin) expressed in mouse NIH3T3 cells assessed as inhibition of forskolin-induced cAMP accumulation", "type": "functional, cell-based"}, "[11]": {"biological_target": "T1, Melatonin receptor type 1A", "assay": "Antagonist activity at MT1 receptor (unknown origin) assessed as cAMP accumulation", "type": "functional"}, "[12]": {"biological_target": "T1, Melatonin receptor type 1A", "assay": "Binding affinity to MT1 receptor (unknown origin) expressed in HEK cells", "type": "cell-based, HEK293"}, "[13]": {"biological_target": "T2, Melatonin receptor type 1B", "assay": "Binding affinity to MT2 receptor (unknown origin) expressed in HEK cells", "type": "cell-based, HEK293"}, "[14]": {"biological_target": "T1, Melatonin receptor type 1A", "assay": "Binding affinity to MT1 receptor (unknown origin) expressed in HEK293 cells", "type": "cell-based"}, "[15]": {"biological_target": "T2, Melatonin receptor type 1B", "assay": "Binding affinity to MT2 receptor (unknown origin) expressed in HEK293 cells", "type": "cell-based"}, "CYP3A4": {"biological_target": "CYP3A4 (Homo sapiens, UniProt P08684)", "sequence (P08684 whole entry)": "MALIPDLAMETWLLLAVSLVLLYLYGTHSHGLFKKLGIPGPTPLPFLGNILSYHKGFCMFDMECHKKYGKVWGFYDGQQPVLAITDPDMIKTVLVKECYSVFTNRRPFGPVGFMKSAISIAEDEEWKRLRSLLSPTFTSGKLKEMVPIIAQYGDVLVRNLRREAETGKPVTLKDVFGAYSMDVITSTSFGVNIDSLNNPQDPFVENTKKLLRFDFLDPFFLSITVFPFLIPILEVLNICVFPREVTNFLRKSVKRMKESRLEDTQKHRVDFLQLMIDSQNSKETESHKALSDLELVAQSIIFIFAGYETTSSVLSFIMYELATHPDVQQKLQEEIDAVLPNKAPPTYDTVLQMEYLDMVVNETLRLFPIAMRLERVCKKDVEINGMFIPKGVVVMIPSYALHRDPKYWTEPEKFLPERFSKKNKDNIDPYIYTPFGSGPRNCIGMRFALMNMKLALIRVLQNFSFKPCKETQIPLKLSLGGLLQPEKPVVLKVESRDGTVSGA", "assay": "Half life of the compound assessed as CYP3A4 (unknown origin)-mediated drug metabolism", "type": "ADME"}, "[16]": {"biological_target": "T1, Melatonin receptor type 1A", "assay": "Agonist activity at MT1 receptor (unknown origin) expressed in mouse NIH3T3 cells assessed as inhibition of forskolin-induced cAMP accumulation", "type": "functional, cell-based"}, "[17]": {"biological_target": "T2, Melatonin receptor type 1B", "assay": "Antagonist activity at MT2 receptor (unknown origin) expressed in mouse NIH3T3 cells by [35S]GTPgammaS binding assay", "type": "functional"}, "[18]": {"biological_target": "T1, Melatonin receptor type 1A", "assay": "Antagonist activity at MT1 receptor (unknown origin) expressed in mouse NIH3T3 cells by [35S]GTPgammaS binding assay", "type": "functional"}, "[19]": {"assay": "Partial agonist activity at melatonin receptor in chicken brain membranes assessed as cAMP level", "type": "cell membranes, Gallus gallus, Membrane"}}, "data": [{"smiles": "COc1cc2[nH]cc(CCNC(C)=O)c2cc1OC", "values": [{"measurement": "Ki", "setting": "[1]", "result": 207, "unit": "nM"}, {"measurement": "Ratio Ki", "setting": "Homo sapiens [2]", "result": 60}, {"measurement": "Ki", "setting": "[3]", "result": 3.5, "unit": "nM"}]}, {"smiles": "C=CCC(=O)NCCc1c(Cc2cccc(OC)c2)oc2ccc(OC)cc12", "values": [{"measurement": "Ratio Ki", "setting": "Homo sapiens [4]", "result": 192}]}, {"smiles": "CC(=O)NCCc1c[nH]c2ccc(OCCCc3ccccc3)cc12", "values": [{"measurement": "Ki", "setting": "[5]", "result": 49, "unit": "nM"}, {"measurement": "Ki", "setting": "[6]", "result": 3.9, "unit": "nM"}, {"measurement": "Ratio Ki", "setting": "Homo sapiens [7]", "result": 10}]}, {"smiles": "COc1ccc2oc(Cc3ccccc3)c(CCNC(C)=O)c2c1", "values": [{"measurement": "Ratio Ki", "setting": "Homo sapiens [4]", "result": 23}]}, {"smiles": "COc1cccc(Cc2oc3ccc(OC)cc3c2CCNC(C)=O)c1", "values": [{"measurement": "Ki", "setting": "[8]", "result": 0.33, "unit": "nM"}, {"measurement": "Ratio Ki", "setting": "Homo sapiens [4]", "result": 123}]}, {"smiles": "CCC(=O)NC1Cc2ccccc2C(c2ccccc2)C1", "note": "(racemic)", "values": [{"measurement": "Ki", "setting": "[1]", "result": 501, "unit": "nM"}, {"measurement": "Ratio Ki", "setting": "Homo sapiens [2]", "result": 330}]}, {"smiles": "CCCC(=O)NCCc1c2n(c3ccc(OC)cc13)CCCc1ccccc1-2", "values": [{"measurement": "Ratio Ki", "setting": "Homo sapiens [2]", "result": 132}]}, {"smiles": "CC(=O)NCCc1cccc2ccc(OCCCCOc3ccc4cccc(CCNC(C)=O)c4c3)cc12", "values": [{"measurement": "Ki", "setting": "[5]", "result": 167, "unit": "nM"}, {"measurement": "Ki", "setting": "[6]", "result": 3.1, "unit": "nM"}, {"measurement": "Ratio Ki", "setting": "Homo sapiens [7]", "result": 54}, {"measurement": "Ratio Ki", "setting": "Homo sapiens [9]", "result": 122}]}, {"smiles": "CC(=O)NCCN(C)c1cccc(OCCCCc2ccccc2)c1", "values": [{"measurement": "Ki", "setting": "[10]", "result": 91.2, "unit": "nM"}]}, {"smiles": "CC(=O)NCCc1c[nH]c2ccc(OCCCOc3ccccc3)cc12", "values": [{"measurement": "Ki", "setting": "[5]", "result": 87, "unit": "nM"}, {"measurement": "Ki", "setting": "[6]", "result": 7.9, "unit": "nM"}, {"measurement": "Ratio Ki", "setting": "Homo sapiens [7]", "result": 10}]}, {"smiles": "COc1cc2c(cc1OC)C(CCc1ccccc1)N(C(C)=O)CC2", "note": "(stereo unspecified)", "values": [{"measurement": "IC50", "setting": "[11]", "result": "> 1000", "unit": "nM"}]}, {"smiles": "COc1cc2c(CCNC(C)=O)c(C)[nH]c2cc1Cl", "values": [{"measurement": "Ki", "setting": "[3]", "result": 2.2, "unit": "nM"}]}, {"smiles": "CCCCCCOc1ccc2c(c1)C(CCNC(C)=O)CCO2", "note": "(stereo unspecified)", "values": [{"measurement": "Ki", "setting": "[12]", "result": 1.2, "unit": "nM"}, {"measurement": "Ki", "setting": "[5]", "result": 21.4, "unit": "nM"}, {"measurement": "Ki", "setting": "[6]", "result": 3.4, "unit": "nM"}, {"measurement": "Ratio Ki", "setting": "Homo sapiens [9]", "result": 25}, {"measurement": "Ki", "setting": "[13]", "result": 29, "unit": "nM"}]}, {"smiles": "COc1ccc2[nH]c(Cc3ccccc3)c(CCNC(C)=O)c2c1", "values": [{"measurement": "Ratio Ki", "setting": "Homo sapiens [2]", "result": 130}]}, {"smiles": "CC(=O)NCCc1cccc2ccc(OCCCOc3ccc4cccc(CCNC(C)=O)c4c3)cc12", "values": [{"measurement": "Ki", "setting": "[5]", "result": 149, "unit": "nM"}, {"measurement": "Ki", "setting": "[6]", "result": 3.9, "unit": "nM"}, {"measurement": "Ratio Ki", "setting": "Homo sapiens [7]", "result": 3}]}, {"smiles": "CCCNC(=O)CCCc1cccc2c1SCCO2", "values": [{"measurement": "IC50", "setting": "[14]", "result": 2.3, "unit": "nM"}, {"measurement": "IC50", "setting": "[15]", "result": 6.7, "unit": "nM"}]}, {"smiles": "COc1ccc2[nH]cc(CCNC(C)=O)c2c1", "note": "[MELATONIN]", "values": [{"measurement": "half-life", "setting": "CYP3A4", "result": 20, "unit": "min"}]}, {"smiles": "CCOC(=O)c1[nH]c2ccc(OC)c3c2c1[C@@H](CNC(C)=O)CC3", "values": [{"measurement": "Ki", "setting": "[16]", "result": 0.18, "unit": "nM"}, {"measurement": "Ki", "setting": "[10]", "result": 0.29, "unit": "nM"}]}, {"smiles": "COc1ccc2c(c1)C(CNC(C)=O)Cc1ccccc1C2", "note": "(stereo unspecified)", "values": [{"measurement": "Ki", "setting": "[17]", "result": 1.3, "unit": "nM"}, {"measurement": "Ki", "setting": "[18]", "result": 27, "unit": "nM"}]}, {"smiles": "O=C(NCCCc1cccc2nc(CCCCc3ccccc3)oc12)C1CC1", "values": [{"measurement": "Ratio Ki", "setting": "Homo sapiens [7]", "result": 35}]}, {"smiles": "COc1cc2c(cc1OC)C(CC(c1ccccc1)c1ccccc1)N(C(C)=O)CC2", "note": "(stereo unspecified)", "values": [{"measurement": "IC50", "setting": "[11]", "result": "> 1000", "unit": "nM"}]}, {"smiles": "CC(=O)NCCc1c(Cc2ccccc2)[nH]c2ccccc12", "values": [{"measurement": "Ratio Ki", "setting": "Homo sapiens [2]", "result": 15}]}, {"smiles": "CC(=O)NCCc1cccc2ccc(-c3ccc4cccc(CCNC(C)=O)c4c3)cc12", "values": [{"measurement": "Ki", "setting": "[5]", "result": 246, "unit": "nM"}, {"measurement": "Ki", "setting": "[6]", "result": 5.2, "unit": "nM"}]}, {"smiles": "CCCC(=O)NCCc1c2n(c3ccc(OC)cc13)Cc1ccccc1-2", "values": [{"measurement": "Ratio Ki", "setting": "Homo sapiens [2]", "result": 89}]}, {"smiles": "CCCC(=O)NCCCc1cccc2c1OCCO2", "values": [{"measurement": "Ki", "setting": "[19]", "result": 2.4, "unit": "nM"}]}]}
